Activity calls are given as the source filed them. The rule behind the calls is not given here.
What was measured:
[1] = tested on: Hepatitis C virus; test: Antiviral activity against Hepatitis C virus subtype 1b by replication assay; assay type: functional, organism-based, Hepacivirus hominis; conditions: genotype 1b
[2] = tested on: Hepatitis C virus; test: Antiviral activity against Hepatitis C virus subtype 1a by replication assay; assay type: functional, organism-based, Hepacivirus hominis
[3] = tested on: Hepatitis C virus; test: Binding affinity to HCV 1b NS5B polymerase; conditions: Hepatitis C virus subtype 1b
[4] = tested on: Hepatitis C virus subtype 1a; test: Binding affinity to HCV 1a wild type NS5B polymerase

Compound	EC50 [1] [µM]	EC50 [2] [µM]	Activity [3]	Activity [4]
COc1ccc(CNC(=O)C2CN(c3cc(OC)nc(OC)n3)CCN2S(=O)(=O)c2ccc(OC(F)(F)F)cc2)cc1 (racemic)	0.7	8.1	Active	–
CC[C@H](C)NC(=O)c1ccc(N2CCN(S(=O)(=O)c3ccc(OC(F)(F)F)cc3)[C@@H](C(=O)NCc3ccc(OC(F)(F)F)cc3)C2)nn1	0.007	0.087	–	–
CCc1ccc(S(=O)(=O)N2CCN(c3cc(OC)nc(OC)n3)CC2C(=O)NCc2ccc(OC)cc2)cc1 (racemic)	2	25	–	–
COc1ccc(CNC(=O)C2CN(c3ccc(Cl)nn3)CCN2S(=O)(=O)c2ccc(OC(F)(F)F)cc2)cc1 (racemic)	0.7	2.2	Active	–
O=C(NC1CC1)c1ccc(N2CCN(S(=O)(=O)c3ccc(OC(F)(F)F)cc3)[C@@H](C(=O)NCc3ccc(OC(F)(F)F)cc3)C2)nn1	0.009	0.169	Active	Active
